Experimental data from PubChem BioAssay (NCI).
Values joined by “and” are separate entries in the source; they are usually repeats but may differ in a detail not shown here. Identical values can stand only once.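 Compound exposure: 48 hours, 5 concentrations, 96-well plates. Abbreviation: GI50, concentration required for 50% inhibition of growth. TGI: concentration producing complete growth inhibition.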 *1 amine or outer side, *2 acyl side, *3 side chain or, on linkers, in order; H or OH if unused. Where a SMILES comes first, the peptide text is derived from it. Bridges are numbered along the chain shown (N, C = ends). Roman numbers before positions name the chains, in order. [ ]: non-standard residue; d: D form. Actinocin(9to1) = Cc1c2oc3c(C)ccc(C(=O)[*:1])c3nc-2c(C(=O)[*:2])c(N)c1=O; NMeT = CN[CH](C(=O)O)[CH](C)O; Sar = CNCC(=O)O

Legend:
Assay in all cases: inhibition of tumour cell growth, NCI panel, 48 h
SF-295 CNS = test system: SF-295 CNS
SK-MEL-2 melanoma = test system: SK-MEL-2 melanoma
PC-3 prostate = test system: PC-3 prostate
ACHN renal = test system: ACHN renal
K-562 leukemia = test system: K-562 leukemia
SN12C renal = test system: SN12C renal
HCC-2998 colon = test system: HCC-2998 colon
NCI/ADR-RES ovarian = test system: NCI/ADR-RES ovarian
RPMI-8226 leukemia = test system: RPMI-8226 leukemia
CAKI-1 renal = test system: CAKI-1 renal

Compound	GI50 (SF-295 CNS)	TGI (SF-295 CNS)	GI50 (SK-MEL-2 melanoma)	TGI (SK-MEL-2 melanoma)	GI50 (PC-3 prostate)	TGI (PC-3 prostate) [µM]	GI50 (ACHN renal) [µM]	TGI (ACHN renal) [µM]	GI50 (K-562 leukemia) [µM]	TGI (K-562 leukemia)	GI50 (SN12C renal)	TGI (SN12C renal)	GI50 (HCC-2998 colon)	TGI (HCC-2998 colon)	GI50 (NCI/ADR-RES ovarian)	TGI (NCI/ADR-RES ovarian)	GI50 (RPMI-8226 leukemia)	TGI (RPMI-8226 leukemia)	GI50 (CAKI-1 renal)	TGI (CAKI-1 renal)
Cc1ccc2c(-c3ccnc(Nc4ccccc4)n3)c(-c3ccc(F)cc3)nn2n1	11.3 µM	> 25 µM	7.67 µM	17.4 µM	9.97 µM	> 25	1.26	> 25	13.5	> 25 µM	4.85 µM	> 25 µM	7.03 µM	22.6 µM	6.64 µM	> 25 µM	10.5 µM	> 25 µM	1.41 µM	> 25 µM
Cc1c2oc3c(C)ccc(C(=O)NC4C(=O)NC(C(C)C)C(=O)N5CCCC5C(=O)N(C)CC(=O)N(C)C(C(C)O)C(=O)OC4C)c3nc-2c(C(=O)NC2C(=O)NC(C(C)C)C(=O)N3CCCC3C(=O)N(C)CC(=O)N(C)C(C(C)O)C(=O)OC2C)c(N)c1=O (centres undefined) (I: TVP[Sar][NMeT] / II: TVP[Sar][NMeT]; ester I:1-I:C, II:1-II:C; linker I:N-II:N via Actinocin(9to1); configuration not given here)	–	> 100 µM	–	3.97 µM and > 1 µM	2.99 µM and > 1 µM	> 100	–	> 26.6	–	> 36.5 µM	–	42.8 µM and > 1 µM	3.64 µM and > 1 µM	> 29.3 µM	25.9 µM and > 1 µM	> 100 µM	–	10.6 µM and > 1 µM	3.64 µM and > 1 µM	13.1 µM and > 1 µM
Cc1cc(O)cc2c1[C@]1(C)CCC3C(C)(C)CCC[C@]3(C)[C@H]1C2 (some centres undefined)	20.3 µM	36 µM	26.2 µM	52.7 µM	24.7 µM	65.1	19.1	33.3	67.4	> 100 µM	17.2 µM	32.3 µM	22.1 µM	38 µM	21.4 µM	39.8 µM	29.6 µM	74.7 µM	18.1 µM	31.9 µM
CNC/C(Cl)=N/S(=O)(=O)c1ccc(C)cc1	–	32.4 µM	–	34.4 µM	–	22.8	–	35.8	–	> 100 µM	–	28.1 µM	–	16.2 µM	–	> 100 µM	–	33.5 µM	–	26.2 µM
C/C(=N\Nc1cc(C)c2ccccc2n1)c1ccccn1	–	0.499 µM	0.357 µM	11.1 µM	0.0821 µM	4.5	< 0.0374	1.14	0.0865	1.5 µM	0.0762 µM	7.57 µM	< 0.0445 µM	2.15 µM	0.0717 µM	1.42 µM	0.112 µM	2.01 µM	–	0.544 µM
CC1(C)CC2=C(Sc3ccccc3N2)C(=O)C1C(=O)C(=O)Nc1cccc([N+](=O)[O-])c1 (centres undefined)	–	> 100 µM	–	> 100 µM	–	> 100	–	> 100	–	> 100 µM	–	> 100 µM	–	> 100 µM	–	> 100 µM	–	> 100 µM	–	> 100 µM
CC(C)C[C@H](NC(=O)Cn1ccc(NCc2ccccc2)cc1=O)B(O)O	2.62 µM	15.3 µM	1.85 µM	14.8 µM	5.86 µM	98.9	0.427	> 100	3.48	> 100 µM	3.71 µM	54.8 µM	2.21 µM	5.73 µM	17.8 µM	> 100 µM	0.304 µM	–	0.499 µM	12.8 µM
Cc1cc(=O)oc2c(C)c(O)ccc12	–	> 100 µM	–	> 100 µM	–	> 100	–	> 100	–	> 100 µM	–	> 100 µM	–	> 100 µM	–	> 100 µM	–	> 100 µM	–	> 100 µM
COc1cc2ncn(-c3cc(O[C@@H](C)c4ccccc4Cl)c(C(N)=O)s3)c2cc1OC	1.25 µM	> 25 µM	1.58 µM	> 25 µM	2.55 µM	> 25	2.89	> 25	0.983	> 25 µM	3.05 µM	> 25 µM	2.55 µM	> 25 µM	0.429 µM	> 25 µM	1.49 µM	> 19 µM	6.8 µM	> 25 µM
C=C(CN1CCN(c2cccc(C(F)(F)F)n2)CC1)c1ccc(C(=O)Nc2ccccc2N)cc1	0.387 µM and 0.191 µM	–	5.65 µM and 0.851 µM	41.5 µM and > 58 µM	0.42 µM and 0.484 µM	> 100	–	> 100	0.623	> 100 µM	3.79 µM and 0.797 µM	> 100 µM	9.63 µM	> 100 µM	0.641 µM and 0.4 µM	> 100 µM	0.534 µM and 0.277 µM	4.19 µM and 1.33 µM	0.512 µM and 0.52 µM	> 100 µM and 25.7 µM
Cc1cccc(C)c1NC(=O)C(=O)CC(=O)/C=C/c1ccccc1	–	> 100 µM	–	> 100 µM	–	> 100	–	> 100	–	> 100 µM	–	> 100 µM	–	> 100 µM	–	> 100 µM	–	> 100 µM	–	> 100 µM
Cc1ccc(Cc2cnc(NC(=O)/C=C/c3cccc(C)c3)s2)cc1	0.0786 µM	0.558 µM	1.68 µM	> 100 µM	0.154 µM	> 100	0.278	4.66	0.0469	> 100 µM	0.393 µM	> 56 µM	0.296 µM	> 37.1 µM	0.135 µM	2.06 µM	0.175 µM	10.5 µM	0.0663 µM	11 µM
CC(=O)N1C/C(=C/c2ccc(Cl)cc2)C(=O)/C(=C/c2ccc(Cl)cc2)C1	1.08 µM	3.02 µM	2.19 µM	4.56 µM	0.47 µM	2.28	0.769	2.05	0.335	> 100 µM	0.72 µM	2.24 µM	0.632 µM	1.45 µM	2.56 µM	12.6 µM	0.0889 µM	0.463 µM	2.53 µM	8.5 µM
C=C1C(=O)O[C@H]2[C@H]1CC/C(COC(=O)C(=O)c1cn(C)c3ccc(Cl)cc13)=C\CC[C@@]1(C)O[C@@H]21	2.88 µM	10.3 µM	1.39 µM	3.61 µM	1.41 µM	3.32	1.07	2.5	1.65	> 100 µM	1.39 µM	4.71 µM	1.86 µM	3.52 µM	1.45 µM	4.7 µM	0.306 µM	1.19 µM	1.71 µM	4.54 µM
O=C1CC(=O)N(C(=O)c2nn(-c3ccc(Cl)cc3)cc2O)N1	0.17 µM	> 100 µM	> 100 µM	> 100 µM	0.36 µM	> 100	0.544	> 100	0.292	8.15 µM	0.494 µM	> 100 µM	4.17 µM	> 100 µM	1.16 µM	> 100 µM	0.37 µM	11.1 µM	0.639 µM	12.7 µM
O=c1ccs[nH]1	–	54.2 µM	–	61.3 µM	–	31.4	–	17.8	–	64.6 µM	–	28.3 µM	–	8.02 µM	–	50.5 µM	–	21.8 µM	–	22.2 µM
CCOC(=O)NC1C2CC(=O)OC(O2)C1OC(C)=O (centres undefined)	–	> 100 µM	–	> 100 µM	> 100 µM	> 100	–	> 100	–	> 100 µM	–	> 100 µM	–	> 100 µM	> 100 µM	> 100 µM	–	> 100 µM	–	> 100 µM
C[C@]12CC[C@@H]3c4cc(-c5ccc(F)cc5)c(O)cc4CC[C@H]3[C@@H]1CC[C@@H]2O	3.98 µM	17.6 µM	5.81 µM	19.8 µM	4.63 µM	21.8	5.86	18.9	3.06	18.3 µM	10 µM	22.4 µM	16.8 µM	38.2 µM	6.95 µM	65.9 µM	2.78 µM	16.5 µM	6.47 µM	21.5 µM
N#Cc1ccc2c(c1)C(=O)c1c-2n(CCCCl)c(=O)c2cc([N+](=O)[O-])ccc12	4.21 µM	> 100 µM	16.9 µM	54.1 µM	19.1 µM	> 100	1.91	6.59	–	–	5.93 µM	> 100 µM	12 µM	> 100 µM	6 µM	> 100 µM	3.44 µM	20.6 µM	18 µM	> 100 µM
NC1CCC(Nc2nc(NCc3ccc(-c4ccccc4O)nc3)c3ncn(C4CCCC4)c3n2)CC1 (centres undefined)	0.0295 µM	0.219 µM	0.0227 µM	0.0583 µM	0.0275 µM	1.02	0.14	1.07	–	–	0.0149 µM	1.38 µM	0.0229 µM	0.515 µM	0.135 µM	2.18 µM	< 0.01 µM	0.0479 µM	0.38 µM	2.2 µM
C[C@]12CC[C@H](OC3OC(CO)C(O)C(O)C3O)C[C@H]1CC[C@@H]1[C@@H]2CC[C@]2(C)[C@@H](C3=CCOC3=O)CC[C@]12O (some centres undefined)	–	24.6 µM and > 100 µM and 70.7 µM	> 100 µM	50 µM and > 100 µM	–	> 100	0.183	> 100	> 100	50 µM and > 100 µM	> 100 µM	50 µM and > 100 µM	> 100 µM	50 µM and > 100 µM	> 100 µM	50 µM and > 100 µM	–	19.5 µM and > 100 µM	–	–
O=C(O)CCCSc1ccccc1	–	> 100 µM	–	> 100 µM	–	> 100	–	> 100	–	> 100 µM	–	> 100 µM	–	> 100 µM	–	> 100 µM	–	> 100 µM	–	> 100 µM
COc1ccc(-c2cc(-c3ccc(Cl)cc3)nc(SCCCC(=O)NO)n2)cc1	0.537 µM	2.23 µM	2.42 µM	6.94 µM	0.874 µM	3.61	0.379	1.88	1.2	> 100 µM	0.654 µM	> 20.5 µM	1.68 µM	3.45 µM	0.314 µM	1.28 µM	0.771 µM	> 24.9 µM	0.284 µM	1.29 µM
COC(=O)c1cc2c3ccccc3n3c(=O)c4cc5ccccc5nc4c(n1)c23	> 100 µM	> 100 µM	> 100 µM	> 100 µM	> 100 µM	> 100	> 100	> 100	> 100	> 100 µM	> 100 µM	> 100 µM	> 100 µM	> 100 µM	> 100 µM	> 100 µM	–	–	> 100 µM	> 100 µM
COc1cc(-c2ccc(-c3ccc(C(=N)N)nc3)s2)cc(OC)c1OC	–	–	2.09 µM	4.35 µM	3.11 µM	12.7	1.73	3.14	1.39	4.46 µM	2.05 µM	4.71 µM	2 µM	3.9 µM	5.2 µM	24.1 µM	1.67 µM	3.97 µM	1.59 µM	3.19 µM
C=C1C(=O)O[C@H]2[C@H]1CC/C(COC(=O)c1cc3ccccc3o1)=C\CC[C@@]1(C)O[C@@H]21	5.9 µM	19.1 µM	1.77 µM	3.81 µM	1.76 µM	3.72	1.44	2.76	1.15	7.43 µM	1.78 µM	4.12 µM	2.47 µM	5.84 µM	2.59 µM	10.1 µM	0.715 µM	3.44 µM	–	–
Cc1occc1C(=S)Nc1ccc(Cl)c(C(=O)OC(C(C)C)C(C)C)c1	–	18.5 µM	–	38.4 µM	–	25.4	–	24.9	–	–	–	30.9 µM	–	21.9 µM	–	26.3 µM	–	29.6 µM	–	35.4 µM
O=C(CC(C(=O)c1cccs1)c1cccs1)c1ccsc1 (centres undefined)	–	–	–	> 100 µM	–	> 100	–	> 100	–	> 100 µM	–	> 100 µM	–	> 100 µM	–	> 100 µM	–	> 100 µM	–	> 100 µM
